Laboratory results reported in ChEMBL document CHEMBL4396882, “2-Aminothiazole-4-carboxamides Enhance Readthrough of Premature Termination Codons by Aminoglycosides” (2019).
Active and inactive are the calls of the source. The calls are words filed in the database; no cut-off is given here.

Assays:
HDQ-P1 [1] = experiment: Induction of P53 expression in human HDQ-P1 cells assessed as enrichment ratio at 10 uM incubated for 72 hrs by automated electrophoresis western analysis; format: functional
HDQ-P1 [2] = experiment: Induction of P53 expression in human HDQ-P1 cells assessed as enrichment ratio at 30 uM incubated for 72 hrs by automated electrophoresis western analysis; format: functional
HDQ-P1 [3] = experiment: Induction of P53 expression in human HDQ-P1 cells assessed as enrichment ratio at 10 uM incubated for 72 hrs in presence of 25 uM G418 by automated electrophoresis western analysis; format: functional
HDQ-P1 [4] = experiment: Induction of P53 expression in human HDQ-P1 cells assessed as enrichment ratio at 30 uM incubated for 72 hrs in presence of 25 uM G418 by automated electrophoresis western analysis; format: functional
HDQ-P1 [5] = experiment: Effect on human HDQ-P1 cells assessed as increase in TP53 R213X mRNA level at 10 uM incubated for 72 hrs in presence of G418 by RT-qPCR analysis; format: functional, cell-based
HDQ-P1 [6] = experiment: Induction of P53 expression in human HDQ-P1 cells assessed as enrichment ratio at 10 uM incubated for 72 hrs in presence of 50 uM G418 by Hoechst 33323 staining based fluorescence assay; format: functional
HDQ-P1 [7] = experiment: Induction of P53 expression in human HDQ-P1 cells assessed as enrichment ratio at 3 uM incubated for 72 hrs in presence of 50 uM G418 by Hoechst 33323 staining based fluorescence assay; format: functional
HDQ-P1 [8] = experiment: Induction of P53 expression in human HDQ-P1 cells assessed as enrichment ratio at 10 uM incubated for 72 hrs in presence of 50 uM G418 by automated electrophoresis western analysis; format: functional
HDQ-P1 [9] = experiment: Induction of P53 expression in human HDQ-P1 cells assessed as enrichment ratio at 3 uM incubated for 72 hrs in presence of 50 uM G418 by automated electrophoresis western analysis; format: functional
HDQ-P1 [10] = experiment: Induction of P53 expression in human HDQ-P1 cells assessed as enrichment ratio at 3 uM incubated for 72 hrs in presence of gentamicin by automated electrophoresis western analysis; format: functional
HDQ-P1 [11] = experiment: Effect on human HDQ-P1 cells assessed as increase in TP53 R213X mRNA level at 10 uM incubated for 72 hrs by RT-qPCR analysis; format: functional, cell-based
HDQ-P1 [12] = experiment: Cytotoxicity in human HDQ-P1 cells assessed as reduction in cell viability at 1 uM incubated for 72 hrs by MTT assay; format: functional, cell-based
HDQ-P1 [13] = experiment: Cytotoxicity in human HDQ-P1 cells assessed as reduction in cell viability at 3 uM incubated for 72 hrs by MTT assay relative to control; format: functional
HDQ-P1 [14] = experiment: Cytotoxicity in human HDQ-P1 cells assessed as reduction in cell viability incubated for 72 hrs in presence of G418 by MTT assay; format: functional, cell-based
HDQ-P1 [15] = experiment: Ratio of enrichment ratio of test compound at 10 uM to enrichment ratio of CDX5-1 at 30 uM in human HDQ-P1 cells by automated electrophoresis western analysis; format: functional

SMILES | Ratio (HDQ-P1 [6]) | Ratio (HDQ-P1 [7]) | Ratio (HDQ-P1 [8]) | Ratio (HDQ-P1 [9]) | other results
O=C1NC(=O)c2cc(NCc3c(Cl)cccc3Cl)ccc21 | – | – | – | – | Ratio (HDQ-P1 [1]): 0.1; Ratio (HDQ-P1 [2]): 0.1; Ratio (HDQ-P1 [3]): 2.8; Ratio (HDQ-P1 [4]): 8.3
CSc1ccc(NC(=O)c2csc(Nc3cccc4[nH]ncc34)n2)cc1 | 20.1 | 8.2 | 7.2 | 5.3 | Activity (HDQ-P1 [5]): inactive; Ratio (HDQ-P1 [1]): 0.1; Ratio (HDQ-P1 [3]): 8.8; Ratio (HDQ-P1 [10]): 10.8; Activity (HDQ-P1 [11]): inactive; Activity (HDQ-P1 [12]): inactive; Activity (HDQ-P1 [13]): 60%; Activity (HDQ-P1 [14]): Active; Ratio (HDQ-P1 [15]): 3
O=C(Nc1ccc2c(c1)OCCO2)c1csc(Nc2ccc3ncccc3c2)n1 | 8.7 | 1.6 | – | – | –
CSc1ccc(NC(=O)c2cnc(Nc3ccc4[nH]ncc4c3)s2)cc1 | 4.7 | 1.6 | – | – | –
O=C(Nc1ccccc1)c1csc(Nc2ccc3[nH]ncc3c2)n1 | 11.2 | 2.5 | – | – | –
COc1ccc(NC(=O)c2cnc(Nc3ccc4[nH]ncc4c3)s2)cn1 | 7.8 | 2.2 | – | – | –
O=C(Nc1ccc2c(c1)OCCO2)c1csc(Nc2cccc3[nH]ncc23)n1 | 15.8 | 3.4 | 15.8 | 3.4 | –
O=C(Nc1ccc2c(c1)OCCO2)c1csc(Nc2ccc(=O)[nH]c2)n1 | 7 | 3.8 | 2.3 | 2.4 | –
COc1cc(NC(=O)c2csc(Nc3cccc4[nH]ncc34)n2)cc(OC)c1OC | 7.2 | 5.3 | 20.1 | 8.2 | –
O=C(Nc1ccc2c(c1)OCO2)c1csc(Nc2ccc3ncccc3c2)n1 | 10.7 | 3.5 | 10.7 | 3.6 | –
COc1ccc(NC(=O)c2csc(Nc3cccc4[nH]ncc34)n2)cn1 | 27.2 | 1.4 | – | – | –
O=C(Nc1ccc(F)cc1)c1csc(Nc2cccc3[nH]ncc23)n1 | 23.3 | 13.1 | 23.3 | 13.1 | Activity (HDQ-P1 [5]): inactive; Ratio (HDQ-P1 [1]): 0.3; Ratio (HDQ-P1 [3]): 25.7; Activity (HDQ-P1 [11]): inactive; Activity (HDQ-P1 [12]): inactive; Activity (HDQ-P1 [13]): 42%; Activity (HDQ-P1 [14]): Active; Ratio (HDQ-P1 [15]): 3
O=C(Nc1ccc2[nH]ncc2c1)c1csc(Nc2ccc3[nH]ccc3c2)n1 | 8 | 1.4 | – | – | –
O=C(Nc1ccc2c(c1)OCO2)c1cnc(Nc2ccc3[nH]ncc3c2)s1 | 19.2 | 1.2 | – | – | –
O=C(Nc1ccc2c(c1)OCO2)c1csc(Nc2ccc3[nH]ncc3c2)n1 | 5.4 | 1.2 | – | – | –
O=C(Nc1ccc2[nH]ccc2c1)c1csc(Nc2ccc3[nH]ncc3c2)n1 | 23 | 1.3 | – | – | –
COc1ccc(NC(=O)c2csc(Nc3cccc4[nH]ncc34)n2)cc1 | 5.9 | 1.6 | – | – | –
